Data on 14 molecules can be found in PMC8611036, “An integrated method for optimized identification of effective natural inhibitors against SARS-CoV-2 3CLpro” (Scientific Reports, 2021).

For orientation: pIC50 means −log10 of the IC50, conventionally taken in molar units. As a reminder, the IC50 is the midpoint of a concentration-inhibition curve. For orientation: Kd means the free concentration of one partner at which half of the binding sites on the other are occupied at equilibrium, for simple one-to-one binding.

Read-outs that look alike come from different tables or passages of the source.

The test system of experiment [1] is SARS-CoV 3CLpro. To be noted: SARS-CoV 3CLpro inhibitors (training set), ref: per compound, cited from earlier work.
Experiment [2] has as its target T1, SARS-CoV-2 3CLpro (Severe acute respiratory syndrome coronavirus 2, UniProt P0DTD1). Conditions: cited from earlier work; for IC50: unit not printed (pIC50 corresponds to µM).
The target of experiment [3] is T1, SARS-CoV-2 3CLpro. Description: Literature-collected IC50 of SARS-CoV-2 3CLpro inhibitors (test set). It counts as biochemical. Conditions: class from pIC50 of the literature IC50.
For experiment [4], the system named is SARS-CoV 3CLpro. The format is biochemical. To be noted: activity class by pIC50 threshold 6.
The target of experiment [5] is T1, SARS-CoV-2 3CLpro. Description: SARS-CoV-2 3CLpro inhibition assay (fluorogenic substrate Dabcyl-[…]-Edans). The format is biochemical.
In experiment [6] the target is T1, SARS-CoV-2 3CLpro. Description: Surface plasmon resonance analysis (Biacore T200). It counts as binding. (In SPR one partner is held on a chip, and binding of the other changes the refractive index at the surface.)
[7] abbreviates: from literature IC50, ref Zhu, Wei et al. ACS pharmacology & translational science vol. 3,5 (2020): 1008-1016.
The mark [8] stands for this setting: ref Zhu, Wei et al. ACS pharmacology & translational science vol. 3,5 (2020): 1008-1016.
[9] abbreviates: from literature IC50, ref Jo, Seri et al. Journal of enzyme inhibition and medicinal chemistry vol. 35,1 (2020): 1539-1544.
[10] abbreviates: ref Jo, Seri et al. Journal of enzyme inhibition and medicinal chemistry vol. 35,1 (2020): 1539-1544.
The mark [11] stands for this setting: SARS-CoV-2 3CLpro in vitro dose–response inhibition, read-out: IC50.
Setting [12] is: SPR, 25 °C, 3CLpro-his captured on CM7 chip, read-out: KD.

Take `O=C(O)c1ccccc1-c1ccc(/C=C2\C(=O)N(c3ccccc3)N=C2c2ccccc2)o1` [CMP13, reference compound]: the results for the pIC50 in the experiment with SARS-CoV 3CLpro [1] (from literature IC50) and on SARS-CoV-2 3CLpro [2] (setting [7]) were 4.3851 and 5.4828, respectively. In addition, the IC50 is 41.2 µM with SARS-CoV 3CLpro [1] (literature values) and 3.29 µM on SARS-CoV-2 3CLpro [2] (setting [8]). The “Inact.(<6)/Act.(>=6)” value on SARS-CoV-2 3CLpro [3] and in the experiment with SARS-CoV 3CLpro [4] was “Inact. (Inact.(<6))” each time.

With `O=c1c(O)c(-c2ccc(O)cc2)oc2c(O)c(O)cc(O)c12` [CMP83], the pIC50 on SARS-CoV-2 3CLpro [2] (setting [9]) is recorded as 4.268. For the same molecule, the IC50 at SARS-CoV-2 3CLpro [2] (setting [10]) was 53.9 µM. Besides, the “Inact.(<6)/Act.(>=6)” value at SARS-CoV-2 3CLpro [3] is recorded as “Inact. (Inact.(<6))”.

With `COc1cc(-c2oc3cc(O)cc(O)c3c(=O)c2O[C@@H]2O[C@H](CO[C@@H]3O[C@@H](C)[C@H](O)[C@@H](O)[C@H]3O)[C@@H](O)[C@H](O)[C@H]2O)ccc1O` [Narcissoside, narcissoside], the IC50 on SARS-CoV-2 3CLpro [5] (setting [11]) was 38.1 µM. For the same molecule, on SARS-CoV-2 3CLpro [6] (setting [12]), the Kd was 10 µM.

`O=c1c(O[C@@H]2O[C@H](CO[C@@H]3O[C@H](CO)[C@@H](O)[C@H](O)[C@H]3O)[C@@H](O)[C@H](O)[C@H]2O)c(-c2ccc(O)cc2)oc2cc(O)cc(O)c12` [Kaempferol-3-O-gentiobioside, kaempferol-3-O-gentiobioside]: on SARS-CoV-2 3CLpro [5] (setting [11]), the IC50 is 35.9 µM. On SARS-CoV-2 3CLpro [6] (setting [12]), the Kd stood at 2.69 µM.

In the case of `O=c1c(O)c(-c2ccc(O)cc2)oc2cc(O)cc(O)c12` [MOL000422], the Kd on SARS-CoV-2 3CLpro [6] (setting [12]) turned out to be 24.6 µM.

Regarding `O=C1/C(=C\c2ccc(-c3ccccc3)o2)C(c2ccccc2)=NN1c1ccccc1` [CMP10], the pIC50 is recorded as 4.652 on SARS-CoV-2 3CLpro [2] (setting [7]) and 4.652 at SARS-CoV-2 3CLpro [2] (test set (SARS-CoV-2 3CLpro inhibitors), collected from literature). The IC50 on SARS-CoV-2 3CLpro [2] (setting [8]) is 22.3 µM. In addition, the “Inact.(<6)/Act.(>=6)” value at SARS-CoV-2 3CLpro [3] and in the experiment with SARS-CoV 3CLpro [4] was “Inact. (Inact.(<6))” each time.

Take `COc1ccc(-c2cc(=O)c3c(O)c(OC)c(OC4OC(COC5OC(C)C(O)C(O)C5O)C(O)C(O)C4O)cc3o2)cc1` (stereo not shown) [CMP84]: at SARS-CoV-2 3CLpro [2] (setting [9]), the pIC50 is 4.287. For the same molecule, on SARS-CoV-2 3CLpro [2] (setting [10]), the IC50 is 51.6 µM. The “Inact.(<6)/Act.(>=6)” value at SARS-CoV-2 3CLpro [3] was “Inact. (Inact.(<6))”.

Turning to `C[C@@H]1O[C@@H](O[C@H]2[C@H](O[C@H]3CC[C@@]4(C)[C@@H](CC[C@]5(C)[C@H]4CC=C4[C@H]6CC(C)(C)CC[C@]6(C(=O)O[C@@H]6O[C@H](CO[C@@H]7O[C@H](CO)[C@@H](O)[C@H](O)[C@H]7O)[C@@H](O)[C@H](O)[C@H]6O)CC[C@]45C)[C@]3(C)CO)OC[C@H](O)[C@@H]2O)[C@H](O)[C@H](O)[C@H]1O` [MOL003034], the Kd at SARS-CoV-2 3CLpro [6] was determined as 10.9 µM.

`COc1cc(-c2oc3cc(O)cc(O)c3c(=O)c2O[C@@H]2O[C@H](CO)[C@@H](O)[C@H](O)[C@H]2O)ccc1O` [MOL007260]: the Kd at SARS-CoV-2 3CLpro [6] (setting [12]) is 9.45 µM.

With `O=C(/C=C/c1ccc(O)c2c1[C@H](C(=O)O[C@H](Cc1ccc(O)c(O)c1)C(=O)O)[C@@H](c1ccc(O)c(O)c1)O2)O[C@H](Cc1ccc(O)c(O)c1)C(=O)O` [MOL007060], the affinity at SARS-CoV-2 3CLpro [6], expressed as Kd, was 64 µM.

Regarding `C[C@@H]1O[C@@H](O[C@@H]2[C@@H](O)[C@H](OCCc3ccc(O)c(O)c3)O[C@H](CO)[C@H]2OC(=O)/C=C/c2ccc(O)c(O)c2)[C@H](O)[C@H](O)[C@H]1O` [MOL003333], on SARS-CoV-2 3CLpro [6], the Kd was 0.409 µM.

For `O=C(/C=C/c1ccc(O)c(O)c1)O[C@@H]1C[C@@](OC(=O)/C=C/c2ccc(O)c(O)c2)(C(=O)O)C[C@@H](O)[C@@H]1O` [MOL007326], the Kd on SARS-CoV-2 3CLpro [6] (setting [12]) is 20.3 µM.

As to `O=c1cc(-c2ccc(O)cc2)oc2c([C@@H]3O[C@H](CO)[C@@H](O)[C@H](O)[C@H]3O)c(O)c([C@@H]3OC[C@H](O)[C@H](O)[C@H]3O)c(O)c12` [Isoschaftoside, isoschaftoside], the IC50 against SARS-CoV-2 3CLpro [5] is 30.2 µM. At SARS-CoV-2 3CLpro [6], this molecule registered a Kd of 11.4 µM.

The molecule `O=c1cc(-c2ccc(O)cc2)oc2c([C@@H]3O[C@H](CO)[C@@H](O)[C@H](O)[C@H]3O)c(O)c([C@@H]3O[C@H](CO)[C@@H](O)[C@H](O)[C@H]3O)c(O)c12` [Vicenin-2, vicenin-2] gave an IC50 against SARS-CoV-2 3CLpro [5] of 38.9 µM. The Kd at SARS-CoV-2 3CLpro [6] is 8.58 µM.
